Experiment: Particle size distribution of monoadipate salt particles
Type: physicochemical
Conditions: particles without milling or after wet milling
Procedure: The crude product was purified and milled as follows: After 4.02 Kg/Kg of anhydrous ethanol and 2.2 Kg/Kg of purified water were added into a reactor and stirred, the crude product obtained above was added to the mixture. The reaction mixture was heated to 65-70° C. and stirred until a clear solution was obtained. The recommended stirring time and rotation speed were 0.5-1 hour and 60-100 rpm, respectively. The reaction mixture was then cooled to 50-55° C. (target temperature: 53° C.) with a recommended cooling rate of 5-10° C./h. After 0.01 Kg/Kg of seed crystals of the compound of formula (5) adipate salt were added to the mixture at 50˜55° C., the mixture was stirred for 1˜3 hours (target: 2 hours) at this temperature. The reaction mixture was cooled down to 20-30° C. (target temperature: 25° C.) with recommended cooling rate of 5-10° C./h. After 8.4 Kg/Kg of purified water was slowly added to the mixture at 20-30° C. in 1-3 hours (target: 2 hours), the mixture was stirred for 1˜3 hours (target: 2 hours) at this temperature. The mixture was cooled to −5 to 5° C. (target temperature: 0° C.) at a cooling rate of 5 to 10° C./h, and stirred at this temperature for 4 to 8 hours (target: 6 hours). While maintaining the temperature at −5 to 5° C. (target temperature: 0° C.), the reaction mixture was passed through a wet mill (Blade no. 2, 6, and 6; rotation speed: 6,000-10,000 rpm, target: 8,000 rpm). Samples were taken every 20-30 minutes to measure the particle size of the solids after wet milling until D50 was no more than 45 μm (target: 35-45 μm). The reaction mixture was filtered through a filter with filter dryer sheath pre-cooled to T=−5˜5° C. The filter cake was washed with a mixture of 1.1 Kg/Kg of purified water and 0.39 Kg/Kg of anhydrous ethanol, which was pre-cooled to −5˜5° C. and maintain for at least 0.5 hour. The solid thus obtained was dried at 50˜60° C. in an oven under a controlled temperature of no more than 70° C. for 12 hours. Samples were taken every 4˜8 hours to track the residual ethanol and make sure the content of residual ethanol was no more than 0.4%. […]

Q: What does the source list for “3-(4-((R)-2-aminopropoxy)phenyl)-N—((R)-1-(3-fluorophenyl)ethyl)imidazo[1,2-b]pyridazin-6-amine adipate salt [compound of formula (5) adipate salt]”?
A: Particle size D10: 7.2 μm; Particle size D50: 44 μm; Particle size D90: 107 μm
